From US10463669B2, “Composition for treating or preventing liver cancer” (Seoul National University R&DB Foundation, priority 2016, dated 2019)

Legend:
Type in all cases: cell-based, human
[1] = tested on: β-catenin and SetD1A binding to the TERT promoter in Huh7 cells; assay: Chromatin immunoprecipitation (ChIP) at the TERT promoter; settings: HCC (Huh7) cells, with or without 300 μmol/L H2O2
Method: As it has been described before (Lim S O, et al. Gastroenterology. 2008; 135: 2128-40, 40 el-8.; Hoffmeyer K, et al. Science. 2012; 336: 1549-54.), several modified ChIP (chromatin immunoprecipitation) tests were carried out. In the presence or absence of a PI3K inhibitor, an AKT inhibitor, or a GSK3β inhibitor, Huh7 cells were cultured for 4 days with or without a treatment of 300 μmol/L H2O2. Under mild shaking for 20 minutes at room temperature, the cells were fixed by using 1% paraformaldehyde. After that, the cells were rinsed twice with ice-cold PBS; resuspended with 400 μL of micrococcal nuclease buffer (50 mmol/L TrisHCl [pH 8.0], 5 mmol/L CaC12, 100 μg/mL BSA, 10 mmol/L KCl, and protease inhibitor cocktail [Roche, Basel, Switzerland; 4693159001]); and disrupted with 2 mm-diameter zirconium beads (Watson); to have micrococcal nuclease digestion (New England Biolabs, Beverly, Mass., USA; M0247S). Chromatin (150 μg) was collected and diluted in a dilution buffer (0.1% NP-40, 2 mmol/L EDTA, 150 mmol/L NaCl, 20 mmol/L TrisHCl [pH 8.0], protease inhibitor cocktail [Roche]), and a phosphatase inhibitor cocktail [Calbiochem]), and then subjected to pre-clearing with 2 μg digested salmon sperm DNA, 10 μL preimmune serum (Santa Cruz Biotechnology; sc-2027), and Dynabeads Protein G (Life Technologies; 1004D) for 2 hours at 4° C. After the immunoprecipitation, 20 μL of Dynabeads Protein G were added thereto and the culture was continued for 2 hours. The Dynabeads were washed continuously for 10 minutes with TSE 1 (0.1% SDS, 1% Triton X-100, 2 mmol/L EDTA, 20 mmol/L TrisHCl, and 150 mmol/L NaCl), TSE II (0.1% SDS, 1% Triton X-100, 2 mmol/L EDTA, 20 mmol/L TrisHCl, and 500 mmol/L NaCl), and buffer III (0.25 mol/L LiCl, 1% NP-40, 1% deoxycholate, 1 mmol/L EDTA, and 10 mmol/L TrisHCl). After that, the beads were washed 3 times with TE buffer, and extraction was made by using 1% SDS and 0.1 mol/L NaHCO3. To have reverse formaldehyde cross-linking, the elution solution was heated overnight at 65° C. By using NucleoSpin DNA clean-up kit, DNA debris were purified. By using primers specific to the TERT promoter region, the PCR amplified product was quantified by qPCR (ABI 7300; Applied Biosystems, Foster City, Calif., USA). The PCR amplification was normalized against the TERT intron. The primer sequences are as follows: β-catenin interaction site for ChIP (forward primer: TCCCGGGTCCCCGGCCCA (SEQ ID NO:8); reverse primer: […] (SEQ ID NO:9)) and TERT intron for ChIP (forward primer: […] (SEQ ID NO:10); reverse primer: […] (SEQ ID NO:11)). For each of the β-catenin interaction site which has been recorded before, 20-22 bp were added. The antibodies that are used are as follows: rabbit polyclonal anti-β-catenin (1:200, Abcam, Cambridge, Mass., USA; ab6302), mouse monoclonal anti-RNA polymerase II (1:50, Covance, Princeton, N.J., USA; MMS-126R), and rabbit polyclonal anti-SETD1A (1:100, Novus Biologicals, Littleton, Colo., USA; NBP1-81513).
Inventors of the present invention made an investigation to see whether or not the increased chromatin accessibility in TERT promoter during TERT transcription is related with β-catenin. To do so, by using intrinsic β-catenin and an antibody against histone methyl transferase SetD1A which has been reported to promote the TERT transcription based on chromatin remodeling, chromatin immunoprecipitation was carried out. When a PI3K or AKT inhibitor is treated together for chromatin immunoprecipitation, β-catenin and SetD1A, which bind to the TERT promoter in HCC cells, were reduced even in the presence of H2O2 (FIGS. 3A and 3B). However, when the treatment is carried out also with a GSK3p inhibitor, increased binding of β-catenin and SetD1A was shown regardless of a treatment with H2O2 (FIG. 3C).

[2] = tested on: TERT expression in HCC cell lines (Huh7 and Hep3B); assay: TERT expression, quantitative real time-PCR and immunoblot; settings: HCC cells treated simultaneously with NAC and H2O2
Method: Medium was exchanged every day, and the aforementioned cells were cultured for 4 days in 300 μmol/L hydrogen peroxide (H2O2) (Sigma Aldrich; H1009). In several experiments, the cells were treated for 1 hour with 5 mmol/L N-acetylcysteine (NAC) (Sigma Aldrich; A7250), 25 μmol/L idelalisib (LC Laboratoties, Woburn, Mass., USA; I-7447), 25 μmol/L perifosine (LC Laboratoties, Woburn, Mass., USA; P-6522), or 30 μmol/L GSK3β inhibitor (GSK3β inhibitor XI) (Santa Cruz; sc-204770) (31) before adding H2O2. Furthermore, sterilized distilled water (pH 7.0) was used as a negative control (i.e., mock treatment).
PCR was carried out by using TOPrealm qPCR 2×PreMIX (SYBR Green with high ROX) (Enzynomics, Daejeon, Korea; RT501M) and ABI Prism 7300 thermal cycler (Applied Biosystems, Foster City, Calif., USA). […] To examine the primer specificity, a dissociation step was additionally included.
Total 2×10^5 cells were boiled for 5 minutes in 2×SDS sample buffer (100 mmol/L TrisHCl [pH 6.8], 4% SDS, 0.2% bromophenol blue, 20% glycerol, and 200 mmol/L β-mercaptoethanol), and then subjected to SDS-PAGE and Western blotting. To detect the TERT, the cells were cultured in 2×SDS sample buffer for 15 minutes at 55° C. TERT-specific (1:300, Rockland Immunochemicals, Gilbertsville, Pa., USA; 600-401-252), AKT-specific (1:1000, Cell Signaling Technology; #9272), phospho-AKT-specific (1:2000, Cell Signaling Technology; #4060), GAPDH-specific (1:2000, Santa Cruz Biotechnology; sc-47724), or β-actin-specific (1:2000, Sigma-Aldrich, St. Louis, Mo., USA; A5441) antibody was diluted in 5% skim milk or bovine serum albumin with TBS-Tween 20, cultured overnight at 4° C., washed, and cultured with HRP-conjugated secondary antibody (1:1000, Abcam; ab131368, or ab131366). By using FUSION-SOLO imager (Vilber Lourmat, Marne La Vallee, France), a chemical fluorescence image was obtained.

[3] = tested on: telomere length in HCC cell lines (Huh7 and Hep3B); assay: Telomere length (Southern blot, immunoFISH, Flow FISH, quantitative PCR); settings: HCC cells treated simultaneously with NAC and H2O2
Method: Volume of the hybridization buffer was adjusted to 100 μl per 10^5 cells. Next, each sample was cultured for 10 minutes in a water bath at 85° C. […] Total 15,000 to 20,000 nuclei were analyzed for the each separate culture. Telomere fluorescence intensity of the all nuclei at […] phase of the cell cycle was measured by using BD FACS Calibur flow cytometer (Becton Dickinson, Franklin Lakes, N.J., USA) in which CELLQUEST software is used. The established ImmunoFISH protocol (Plentz R R, et al., Hepatology. 2007; 45: 968-76) was used with slight modifications. The paraffin-embedded section was subjected to de-paraffinization using xylene, and then rehydrated using ethanol gradient. Antigen retrieval was carried out by boiling in 100 mmol/L sodium citrate (pH 6.0) for 10 minutes in a microwave. After permeation of proteinase K (15 μg/mL in PBS [pH 7.4]) for 20 minutes at 37° C., 8-oxo-dG-specific antibody (1:100, Abcam, Cambridge, Mass., USA; ab62623) was subjected to 1% BSA dilution in PBS 0.1% Triton X-100 and cultured overnight at room temperature. After washing, the slide was treated with Alexa 647 secondary antibody for 1 hour. […] After denaturation for 6 minutes at 90° C., the sample was hybridized for 2 hours at dark place. […] After washing, the slide was rinsed with PBS containing DAPI, and then sealed with a DAPI sealing agent (mounting medium) (Vector Laboratories, Burlingame, Calif., USA). Simultaneously, the inventors of the present invention carried out centromere staining as an internal control for telomere staining and 8-oxo-dG staining. […] For quantification of the telomere fluorescence intensity, centromere fluorescence intensity, and 8-oxo-dG fluorescence intensity, the same exposure time was employed. The telomere fluorescence level and 8-oxo-dG fluorescence level of tumor tissues were calculated by division of the fluorescence level in non-tumor tissues corresponding to 5 random fields. The image analysis was carried out by using Image-Pro plus 6.0 software (Media Cybernetics, Inc., Rockville, Md., USA). Telomere length was determined by using the non-radioactive chemical fluorescence TeloTAGGG telomere length assay (Roche; Cat. No. 12 209 136 001) according to the manual. Genomic DNA was separated from HCC cells using GeneJET Genomic DNA Purification Kit (Thermo Scientific; #K0721), and then 4 μg of the genomic DNA was digested for 16 hours at 37° C. with 20 units of […] digested DNA was subjected to 0.8% agarose gel electrophoresis, and then transferred to a positively charged nylon membrane using capillary transfer. The blotted DNA was hybridized for 16 hours at 42° C. with a digoxigenin (DIG)-labeled probe that is specific to the telomere repeat. After that, it was cultured for 30 minutes at room temperature with DIG-specific antibody conjugated to an alkaline phosphatase Based on quantitative PCR analysis using the genomic DNA extracted from cells, relative telomere repeat copy number (T) and single copy number (S) were determined, and the calculation was made like previous method in which T/S ratio is continuously modified (Cawthon R M. Telomere length measurement by a novel monochrome multiplex quantitative PCR method. Nucleic Acids Res. 2009; 37: e21).

SMILES	SetD1A binding to the TERT promoter [1]	β-catenin binding to the TERT promoter [1]	H2O2-induced increased TERT expression [2]	H2O2-induced increased telomere length [3]
CCCCCCCCCCCCCCCCCCOP(=O)([O-])OC1CC[N+](C)(C)CC1 [perifosine]	reduced	reduced	–	–
O=C1NC(=O)C(c2cn(CCCO)c3ncccc23)=C1c1cnccn1 [GSK3β inhibitor XI]	increased	increased	–	–
CC(=O)N[C@@H](CS)C(=O)O [NAC, N-acetylcysteine]	–	–	disappeared	disappeared
